Reference: patent US20230348459A1, “PYRROLIDINE COMPOUND AND USE THEREOF” (SIMCERE PHARMACEUTICAL CO., LTD., priority 2020, published 2023)

Tests used:
[1] = molecular target: voltage-gated potassium ion channel hERG (Homo sapiens (Human), UniProt Q12809); assay: hERG manual patch clamp in HEK293 cells; assay type: cell-based; settings: HEK293 cells stably expressing hERG
Protocol: HEK293 cell line stably expressing hERG ion channel (Cat. No. K1236) was purchased from Invitrogen. The cell line was cultured in the medium containing 85% DMEM, 10% dialysis fetal bovine serum, 0.1 mM non-essential amino acid solution, 100 U/mL penicillin-streptomycin solution, 25 mM HEPES, 5 µg/mL blasticidin and 400 µg/mL geneticin. When the cell density increased to 40%-80% of the bottom area of the culture dish, trypsin was used for digestion and passage, and the cells were passaged three times weekly. Before the experiment, the cells were cultured in a 6 cm culture dish at a density of 5 × 10^5 and induced by adding 1 µg/mL doxycycline for 48 hours, and then the cells were digested and inoculated on glass slides for subsequent manual patch clamp experiments.
1) According to the SOP-ADMET-MAN-007 standard operating procedure, the compounds to be tested were dissolved with DMSO and prepared into the stock solution with a final concentration of 10 mM. […]
10. Determination of the inhibitory effect of the compounds to be tested on hERG current: First, the hERG current measured in extracellular fluid containing 0.1% DMSO was used as the detection baseline. […] By waiting for about 5 minutes after the completion of each perfusion, the compound was allowed to fully act on the cells, and the hERG currents were simultaneously recorded. After the currents to be recorded became stable, the last 5 hERG current values were recorded, and the average value thereof was taken as the final current value thereof at a specific concentration. […] In addition, the positive compound dofelide was detected with the same patch clamp system both before and after the completion of the test compound experiment to ensure the reliability and sensitivity of the entire detection system.
1) After perfusion of blank solvent or compound gradient solution, the average value of 5 continuous current values obtained in a stable state is calculated as “tail current valueblank” and “tail current valuecompound”, respectively.
2) The percent current inhibition was calculated by the following formula. […]

CYP2C9 = CYP2C9 (Homo sapiens (Human), UniProt P11712); assay: Inhibition of CYP2C9 enzymatic activity in human liver microsomes; assay type: in vitro ADME; settings: substrate diclofenac
Protocol: The inhibition of CYP2C9 and CYP2D6 enzymatic activities by the compounds of the present invention was determined by the following test method.
• 1. Human liver microsomes (Corning 452117) • 2. NADPH (Solarbio 705Y021) • 3. Positive substrates diclofenac (Sigma SLBV3438), dextromethorphan (TRC 3-EDO-175-1) and midazolam (Cerilliant FE01161704) • 4. Positive inhibitors sulfaphenazole (D. Ehrenstorfer GmbH 109012), quinidine (TCI WEODL-RE) and ketoconazole (Sigma 100M1091V) • 5. AB Sciex Triple Quad 5500 liquid chromatography-mass spectrometry
1. Preparation of 100 mM phosphate buffered saline (PBS): 7.098 g of Na2HPO4 was weighed, 500 mL of pure water was added and subjected to ultrasonic dissolution to obtain solution A. 3.400 g of KH2PO4 was weighed, 250 mL of pure water was added and subjected to ultrasonic dissolution to obtain solution B. Solution A was placed on a stirrer and solution B was slowly added until pH reaches 7.4 to prepare 100 mM PBS buffer.
2. Preparation of 10 mM NADPH solution with 100 mM PBS buffer. 10 mM stock solution of compounds of the invention was diluted with DMSO to obtain a 200× concentration of compound working solution (6000, 2000, 600, 200, 60, 20, 0 µM). The stock solution of positive inhibitors was diluted with DMSO to obtain a 200× concentration of positive inhibitor working solution (sulfaphenazole, 1000, 300, 100, 30, 10, 3, 0 µM; quinidine/ketoconazole, 100, 30, 10, 3, 1, 0.3, 0 µM). A 200 × concentration of substrate working solution (120 µM of diclofenac, 400 µM of dextromethorphan, and 200 µM of midazolam) was prepared in water, acetonitrile, or acetonitrile/methanol.
3. 2 µl of 20 mg/ml liver microsome solution, 1 µl of substrate working solution, 1 µl of compound working solution and 176 µl of PBS buffer were taken, mixed uniformly, and pre-incubated in a 37° C. water bath for 15 minutes. […]
The IC50 values of the compounds of the present invention against CYP2C9 and CYP2D6 were calculated by Excel XLfit 5.3.1.3.

voltage-gated potassium ion channel hERG, sequence (Q12809 whole entry): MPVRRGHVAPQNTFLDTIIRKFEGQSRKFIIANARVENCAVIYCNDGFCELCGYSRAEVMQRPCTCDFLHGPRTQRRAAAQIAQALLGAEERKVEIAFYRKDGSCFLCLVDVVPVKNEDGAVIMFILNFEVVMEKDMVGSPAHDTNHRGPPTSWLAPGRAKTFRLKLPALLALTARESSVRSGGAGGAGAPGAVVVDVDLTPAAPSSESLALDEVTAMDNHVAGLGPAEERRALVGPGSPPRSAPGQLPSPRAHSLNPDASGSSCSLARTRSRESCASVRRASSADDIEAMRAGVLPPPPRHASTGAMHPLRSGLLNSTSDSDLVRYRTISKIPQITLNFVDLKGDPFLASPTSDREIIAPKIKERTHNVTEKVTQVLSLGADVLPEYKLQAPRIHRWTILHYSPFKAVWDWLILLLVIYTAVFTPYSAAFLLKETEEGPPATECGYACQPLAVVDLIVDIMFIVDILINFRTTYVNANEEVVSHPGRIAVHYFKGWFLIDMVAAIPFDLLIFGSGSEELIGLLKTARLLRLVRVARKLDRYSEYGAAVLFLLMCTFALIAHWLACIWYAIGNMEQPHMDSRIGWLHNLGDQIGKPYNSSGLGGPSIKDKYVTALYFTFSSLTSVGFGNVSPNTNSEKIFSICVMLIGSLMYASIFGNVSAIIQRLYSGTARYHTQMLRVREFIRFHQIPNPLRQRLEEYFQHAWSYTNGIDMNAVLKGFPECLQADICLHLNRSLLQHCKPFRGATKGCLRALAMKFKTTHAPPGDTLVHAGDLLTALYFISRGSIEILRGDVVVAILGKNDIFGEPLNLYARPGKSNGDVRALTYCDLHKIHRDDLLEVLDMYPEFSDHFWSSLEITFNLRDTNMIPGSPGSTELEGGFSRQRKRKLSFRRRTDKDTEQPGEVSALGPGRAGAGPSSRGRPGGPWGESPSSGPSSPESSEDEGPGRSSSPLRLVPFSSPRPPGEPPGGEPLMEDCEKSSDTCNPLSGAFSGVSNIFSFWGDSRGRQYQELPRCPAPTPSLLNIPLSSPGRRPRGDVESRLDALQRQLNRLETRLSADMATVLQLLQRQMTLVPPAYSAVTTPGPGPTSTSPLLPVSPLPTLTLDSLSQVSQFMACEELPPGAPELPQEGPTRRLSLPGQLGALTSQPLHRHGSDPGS
CYP2C9, sequence (P11712 whole entry): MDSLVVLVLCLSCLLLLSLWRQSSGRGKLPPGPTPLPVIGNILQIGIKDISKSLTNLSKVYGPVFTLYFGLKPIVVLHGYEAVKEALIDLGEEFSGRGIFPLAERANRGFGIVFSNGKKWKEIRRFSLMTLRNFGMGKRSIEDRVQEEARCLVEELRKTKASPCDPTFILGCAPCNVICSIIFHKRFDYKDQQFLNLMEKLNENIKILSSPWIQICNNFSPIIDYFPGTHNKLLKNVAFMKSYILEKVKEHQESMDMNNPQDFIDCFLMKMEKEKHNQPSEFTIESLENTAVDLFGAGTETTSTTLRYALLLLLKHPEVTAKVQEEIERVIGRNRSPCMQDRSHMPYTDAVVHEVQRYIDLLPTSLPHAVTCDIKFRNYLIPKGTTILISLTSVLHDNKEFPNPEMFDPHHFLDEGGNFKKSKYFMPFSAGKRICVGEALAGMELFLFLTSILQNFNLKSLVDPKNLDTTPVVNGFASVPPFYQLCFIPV

| Compound | IC50 [1] | IC50 (CYP2C9) |
| --- | --- | --- |
| C[C@@H]1Cc2c([nH]c3ccccc23)C(c2c(F)cc(N[C@H]3CCN(CCCF)C3)cc2F)N1CC(F)(F)F (stereo in doubt) [Example 4, (S)-N-(3,5-difluoro-4-((1S,3R)-3-methyl-2-(2,2,2-trifluoroethyl)-2,3,4,9-tetrahydro-1H-pyridino[3,4-b]indol-1-yl)phenyl)-1-(3-fluoropropyl)pyrrolidin-3-amine] | 3.7 µM | 20 µM |
| C[C@@H]1Cc2c([nH]c3ccccc23)C(c2c(F)cc(N[C@H]3CCN(CCCF)C3)cc2F)N1CC(F)(F)CO (stereo in doubt) [Example 7, 3-((1S,3R)-1-(2,6-difluoro-4-(((S)-1-(3-fluoropropyl)pyrrolidin-3-yl)amino)phenyl)-3-methyl-3,4-dihydro-1H-pyridino [3,4-b]indole-2(9H)-yl)-2,2-difluoropropane-1-ol] | 8.4 µM | 8 µM |
| C[C@@H]1Cc2c([nH]c3ccccc23)[C@@H](c2ccc(N[C@H]3CCN(CCCF)C3)cn2)N1CC(F)(F)F [Example 3, N-((S)-1-(3-fluoropropyl)pyrrolidin-3-yl)-6-((1S,3R)-3-methyl-2-(2,2,2-trifluoroethyl)-2,3,4,9-tetrahydro-1H-pyridino[3,4-b]indol-1-yl)pyridine-3-amine] | 10 µM | > 30 µM |
